# What was measured:
# [1] = test system: MIP-1β; design: species or system Syrian golden hamster; details: hamster, in vivo, ip
# [2] = test system: SARS-CoV-2; experiment: Virus titer (plaque assay on VeroE6 cells) in organs of SARS-CoV-2 infected hamsters treated with letrozole or placebo; assay type: in vivo, Syrian golden hamster; details: 0.18 mg kg-1 i.p. daily, 3 d p.i., compared to placebo
# [3] = test system: MIP-1α; design: species or system Syrian golden hamster; details: hamster, in vivo, ip
# [4] = SARS-CoV-2-infected female hamsters
# [5] = SARS-CoV-2-infected male hamsters
smiles,measurement,setting,value
N#Cc1ccc(C(c2ccc(C#N)cc2)n2cncn2)cc1 [letrozole],expression level of MIP-1β in lungs,[1],lower
same,virus titer in brain,[2]; [4],lower virus titers
same,virus titer in lungs,[2]; [4],lower virus titers
same,virus titer in plasma,[2]; [4],lower virus titers
same,virus titer in brain,[2]; [5],lower virus titers
same,virus titer in lungs,[2]; [5],lower virus titers
same,virus titer in testis,[2]; [5],lower virus titers
same,expression level of MIP-1α in lungs,[3],lower
